According to paper PMC5041077, “Metabolic profile and safety of piperlongumine” (Scientific Reports, 2016):
Each block holds one compound with its values, some of them ahead of it.

Experiments:
CYP2C9 = CYP2C9 (Homo sapiens, UniProt P11712); assay: in vitro
human liver microsomes [1] = assay: Time course of metabolite formation; assay type: in vitro ADME; conditions: PPL at S50, 2 mg/mL HLM
Description: The formation of metabolites was investigated through the application of three distinct mass spectrometry instruments. The incubation time was set at 50 min and 2 mg/mL of microsomal protein was employed in these experiments. The increase in the incubation time and microsomal protein aimed to produce a higher amount of metabolites. The concentration of PPL was 283.6 μM. After metabolism reaction, in order to favor a higher recovery of metabolites from microsomal medium liquid-liquid extraction was performed using 1 mL of ethyl acetate as the extractor solvent. The samples (n = 10) were shaken for 10 min at 1500 rpm using an orbital agitator and centrifuged for 5 min at 2860 × g. After that, 750 μL of supernatant was collected, and each one was pooled from ten single reactions. Next, the samples were evaporated to dryness by using a gentle stream of compressed air. To facilitate the identification of compounds that have hydroxyl groups, after sample preparation and before GC-MS analysis, silylation reactions were performed in the extracted samples. The residues were reconstituted in 50 μL of pyridine and 200 μL of BSTFA solution containing 2% TMCS. Following, the samples were slightly agitated and then incubated in a water bath at 75 °C for 120 min. […]
The incubation time was evaluated in different times (5, 10, 20, 40 and 50 min) in order to investigate the formation of metabolites. […]

epoxide hydrolase = assay: Epoxide hydrolase involvement on M2 catalysis (valproic acid); assay type: in vitro ADME, human; conditions: valproic acid 550 μM, PPL 63.8 µM, 50 min, 2 mg/mL HLM, with NADPH
Description: Epoxide hydrolase involvement on M2 catalysis. To evaluate the epoxide hydrolase involvement on M2 catalysis (Fig. S14), PPL (63.8 µM) was incubated alone or in the presence of valproic acid (550 μM), an epoxide hydrolase inhibitor. The incubation was carried out for 50 minutes at 37°C with 2 mg/mL HLM. Sample preparations and chromatographic analysis were performed according to assay described in phenotyping study session. The results were expressed as % of remain activity and compared with control sample with the absence of the inhibitor.

[2] = tested on: recombinant human CYP (rhCYP) isoforms; assay: P450 reaction phenotyping by rhCYP isoforms; assay type: in vitro ADME; conditions: 50 min incubation
Description: The capacity of selected major human P450 isoforms to metabolize PPL was screened using human recombinant isoenzymes. Briefly, PPL (S50 concentration) was added into a 200 μL incubation mixture containing P450 isoform (50 pmol/mL for CYP3A4, CYP1A2, CYP2C9, 2B6, 2D6 and 2C19; 25 pmol/mL for CYP2C8 and […]; final concentrations), NADPH regeneration system solution A (1.3 mM NADP^+ and 3.3 mM glucose-6-phosphate), NADPH regeneration system solution B (0.4 U/mL glucose-6-phosphate dehydrogenase), potassium phosphate buffer pH 7.4 (100 mM), except for CYP2C9 where the phosphate buffer was substituted by tris buffer pH 7.5 (100 mM), maintaining for 50 min in shaking water bath. In order to enhance the sensibility one sample was pooled from 4 single reactions. PPL metabolites were analyzed by a GC-MS as described previously. The MS peak areas of PPL metabolites were recorded to determine the contributions of the P450 enzymes.
(§1) Phenotyping study at 50 min. In order to evaluate the CYP isoforms involved in M4 formation, a similar study as described in the main text was performed, except by the time of incubation of 50 min (Fig. S13).

human liver microsomes [3] = assay: P450 reaction phenotyping by selective human enzyme inhibitors; assay type: in vitro ADME; conditions: PPL at S50/2, 10 min incubation
Description: (§2) This study was performed by evaluating the PPL metabolism and the produced metabolites in the presence of these specific inhibitors. […] The incubation protocol was the same for all inhibitors, except for orphenadrine, which was pre-incubated with all incubation constituents at 37 °C for 15 min before the reaction was initiated by the addition of substrate. The concentration of PPL used in this study corresponded to its S50/2. […] In order to enhance the sensibility one sample was pooled from 4 single reactions. Sample preparations and GC-MS analysis were performed according to assay previous described. The results were expressed as % of remain activity and compared with control sample lacking the inhibitors.
as §1

CYP3A4 = assay: as above; assay type: in vitro ADME; conditions: human, human liver microsomes, probe PPL (formation of metabolite M2)
Description: as §2, §1

Chain of CYP2C9 (P11712 whole entry): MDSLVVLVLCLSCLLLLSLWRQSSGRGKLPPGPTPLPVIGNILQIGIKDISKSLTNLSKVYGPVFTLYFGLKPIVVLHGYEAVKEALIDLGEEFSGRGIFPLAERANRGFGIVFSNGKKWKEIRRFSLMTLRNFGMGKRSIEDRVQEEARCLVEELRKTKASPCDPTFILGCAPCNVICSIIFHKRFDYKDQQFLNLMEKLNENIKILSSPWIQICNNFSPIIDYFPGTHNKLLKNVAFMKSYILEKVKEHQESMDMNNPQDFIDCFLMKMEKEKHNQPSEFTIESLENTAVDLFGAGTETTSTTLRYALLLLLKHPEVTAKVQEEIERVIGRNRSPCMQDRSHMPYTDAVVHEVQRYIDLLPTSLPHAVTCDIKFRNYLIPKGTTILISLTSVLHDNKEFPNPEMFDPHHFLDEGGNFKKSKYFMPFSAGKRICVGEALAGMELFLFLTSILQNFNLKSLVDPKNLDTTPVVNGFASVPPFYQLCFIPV

- Km (CYP2C9): 47 µM
SMILES: O=C(O)Cc1ccccc1Nc1c(Cl)cccc1Cl [Diclofenac, diclofenac]

- incubation time of maximum production of the metabolite (human liver microsomes [1]): 20 min
SMILES: COc1cc(/C=C/C(=O)N2CCC3OC3C2=O)cc(OC)c1OC (centres unmarked) [M2]

- amount of metabolite M4 produced in presence of valproic acid (epoxide hydrolase): same amount produced
SMILES: CCCC(CCC)C(=O)O [valproic acid]

- incubation time after which the metabolite starts to be produced (lag-time) (human liver microsomes [1]): > 40 min
SMILES: COc1cc(/C=C/C(=O)N2CCC(O)C(O)C2=O)cc(OC)c1OC (centres unmarked) [M4]
- recombinant isoforms that contributed to M4 formation [2]: CYP2C19, CYP2D6, CYP2E1, CYP2B6 and CYP2C8

- inhibitory effect on the formation of metabolite M3 (human liver microsomes [3]; ketoconazole 2 μM): significant inhibitory effect
- inhibition at 10 min, 2 µM (CYP3A4): 83%
SMILES: CC(=O)N1CCN(c2ccc(OCC3COC(Cn4ccnc4)(c4ccc(Cl)cc4Cl)O3)cc2)CC1 (centres unmarked) [ketoconazole]

- inhibition of the formation of metabolite M1 (human liver microsomes [3]; α-naphthoflavone (CYP1A2 inhibitor) 1 μM): strong inhibition
SMILES: O=c1cc(-c2ccccc2)oc2c1ccc1ccccc12 [α-naphthoflavone]
